Measurements as given in patent publication US20060040255A1, “Cell line designated KT-1 established from tongue epithelial and use thereof” (National Food Research Institute, priority 2003, published 2006).

Columns and labels:
[1] = biological target: sweet taste receptors T1r2 and T1r3 (Mus musculus, UniProt Q925D8+Q925I4); details: KT-1C cells; final concentration 5 mM; 0.5 minutes after addition
Experimental: KT-1C cells which had been washed twice in PBS(−) were incubated for 30 minutes at room temperature with 1 ml of imaging buffer (NaHCO3 22 mM, KCl 5 mM, NaH2PO4 1.25 mM, glucose 10 mM, NaCl 124 mM) to which 5 μl of Fura-2-AM (1 mM dissolved in DMSO, Molecular Probe) and 5 μl of Cremophor (Nacalai Tesque) had been added, incorporating Fura-2-AM into the cells. They were then washed twice with imaging buffer to remove any Fura-2-AM that had not been incorporated into the cells.
Next the dish was filled with 1 ml of imaging buffer to which 1 mM MgCl2 and 2 mM CaCl2 had been added, and the artificial sweetener Acesul fame K (Fluka), which is known to be a ligand for sweet taste receptors T1r2 and T1r3, was added to a final concentration of 5 mM. […] After measurement, changes over time in florescence in the various cells were converted to changes in calcium concentration by the AquaCosmos software, and graphed.

[2] = biological target: salt sensing channel αENaC (Mus musculus, UniProt Q61180); details: KT-1C cells
Chain of salt sensing channel αENaC (Q61180 whole entry): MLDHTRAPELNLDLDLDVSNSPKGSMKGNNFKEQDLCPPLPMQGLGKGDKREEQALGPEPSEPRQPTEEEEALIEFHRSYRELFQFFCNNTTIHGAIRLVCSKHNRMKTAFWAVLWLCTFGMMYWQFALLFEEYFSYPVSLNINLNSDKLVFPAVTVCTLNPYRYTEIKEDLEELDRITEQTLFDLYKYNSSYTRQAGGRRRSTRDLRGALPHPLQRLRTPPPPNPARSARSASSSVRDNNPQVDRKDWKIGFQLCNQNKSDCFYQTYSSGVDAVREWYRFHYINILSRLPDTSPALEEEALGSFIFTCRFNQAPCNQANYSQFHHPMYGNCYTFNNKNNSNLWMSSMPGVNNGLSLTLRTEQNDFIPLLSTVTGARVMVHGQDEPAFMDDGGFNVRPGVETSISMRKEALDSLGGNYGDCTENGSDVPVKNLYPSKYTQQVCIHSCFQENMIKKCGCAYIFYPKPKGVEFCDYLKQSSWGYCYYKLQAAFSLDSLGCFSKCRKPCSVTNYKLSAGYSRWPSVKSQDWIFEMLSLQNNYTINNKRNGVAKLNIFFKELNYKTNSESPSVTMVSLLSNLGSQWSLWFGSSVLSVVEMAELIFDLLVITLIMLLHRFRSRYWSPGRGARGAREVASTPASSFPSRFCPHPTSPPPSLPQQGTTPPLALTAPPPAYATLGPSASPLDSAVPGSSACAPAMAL
Experimental: Next they were washed twice with Na imaging buffer to remove any CoroNa-Red that had not been incorporated into the cells.
Next, the dish was filled with 1 mL of imaging buffer to which 1 mM MgCl2 and 2 mM CaCl2 had been added, and NaCl, which is known to be a salt taste channel ligand, was then added thereto to a final concentration of 50 mM. It is known that when cells with salt taste response ability (in other words, cells in which the salt sensing channel αENaC is functionally expressed) respond to NaCl (salty substance), sodium flows into the cytoplasm, and the concentration of sodium in the cytoplasm rises. Therefore, the fluorescence (580 nm) produced by CoroNa-Red when sodium flowed into the cytoplasm due to addition of NaCl was measured over time using an inverted fluorescence microscope (Leica, DMRIB) equipped with a CCD camera (Hamamatsu Photonics) controlled by AquaCosmos software (Hamamatsu Photonics). After measurement, changes over time inflorescence in the various cells were converted to changes in sodium concentration using the AquaCosmos software, and graphed.

salt taste channel αENaC = assay: Hormone regulation of αENaC expression in cell line KT-1B (RT-PCR); type: cell-based, mouse; details: cell line KT-1B treated for 6 days; aldosterone 1 μM, hydrocortisone 0.2 μM; compared with progesterone 0.1 μM
Experimental: While being cultured in the presence of hydrocortisone, cell line KT-1B constantly expresses the amiloride-sensitive sodium channel alpha subunit (αENaC), which might be involved in salt taste response.
Therefore, cell line KT-1B was treated for 6 days with the hormone progesterone (0.1 μM), aldosterone (1 μM) or hydrocortisone (0.2 μM), and expression of the salt sensing channel αENaC was investigated.
RNA was extracted with Trizol solution from the treated cell line KT-1B, and cDNA was synthesized on a scale of 40 μl using the resulting 2 μg of RNA and a Super Script First Strand cDNA synthesis kit. Using 1 μl of this cDNA as the template and primers specific to salt taste channel αENaC (0.2 μM each, Seq. Nos. 13 and 14), 2.5 units of Takara Taq were added and a PCR reaction consisting of denaturation at 95° C. for 5 minutes followed by 35 cycles of 1 minute at 95° C., 1 minute at 58° C. and 2 minutes at 72° C. was performed in a 25 μl system. 8 μl of the PCR reaction liquid was electrophoresed on a 1.5% agarose gel, stained with ethidium bromide and photographed.

Chain of sweet taste receptors T1r2 and T1r3 (Q925I4 20-843): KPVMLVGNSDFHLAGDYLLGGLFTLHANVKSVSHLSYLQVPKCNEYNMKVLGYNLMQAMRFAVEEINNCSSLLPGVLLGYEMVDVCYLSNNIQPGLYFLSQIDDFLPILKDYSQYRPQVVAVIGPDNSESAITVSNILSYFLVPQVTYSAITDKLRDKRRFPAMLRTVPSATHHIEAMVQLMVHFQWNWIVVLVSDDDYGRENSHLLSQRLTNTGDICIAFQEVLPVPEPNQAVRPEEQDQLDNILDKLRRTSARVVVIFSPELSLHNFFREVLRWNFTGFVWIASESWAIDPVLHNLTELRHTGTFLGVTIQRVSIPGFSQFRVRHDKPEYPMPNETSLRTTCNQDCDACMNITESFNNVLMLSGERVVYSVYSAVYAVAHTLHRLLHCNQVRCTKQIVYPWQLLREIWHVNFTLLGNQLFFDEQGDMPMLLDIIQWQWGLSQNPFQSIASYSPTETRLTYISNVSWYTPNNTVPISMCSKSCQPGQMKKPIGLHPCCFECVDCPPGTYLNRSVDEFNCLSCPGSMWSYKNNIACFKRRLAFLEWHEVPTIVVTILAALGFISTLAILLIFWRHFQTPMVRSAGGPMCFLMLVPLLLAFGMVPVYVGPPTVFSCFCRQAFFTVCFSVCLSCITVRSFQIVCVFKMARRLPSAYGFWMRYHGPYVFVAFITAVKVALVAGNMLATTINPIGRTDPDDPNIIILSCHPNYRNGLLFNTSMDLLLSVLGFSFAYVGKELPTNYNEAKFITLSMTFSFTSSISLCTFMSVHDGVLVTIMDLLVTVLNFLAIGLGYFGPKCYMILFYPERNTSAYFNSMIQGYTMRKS
Chain of sweet taste receptors T1r2 and T1r3 (Q925D8 21-858): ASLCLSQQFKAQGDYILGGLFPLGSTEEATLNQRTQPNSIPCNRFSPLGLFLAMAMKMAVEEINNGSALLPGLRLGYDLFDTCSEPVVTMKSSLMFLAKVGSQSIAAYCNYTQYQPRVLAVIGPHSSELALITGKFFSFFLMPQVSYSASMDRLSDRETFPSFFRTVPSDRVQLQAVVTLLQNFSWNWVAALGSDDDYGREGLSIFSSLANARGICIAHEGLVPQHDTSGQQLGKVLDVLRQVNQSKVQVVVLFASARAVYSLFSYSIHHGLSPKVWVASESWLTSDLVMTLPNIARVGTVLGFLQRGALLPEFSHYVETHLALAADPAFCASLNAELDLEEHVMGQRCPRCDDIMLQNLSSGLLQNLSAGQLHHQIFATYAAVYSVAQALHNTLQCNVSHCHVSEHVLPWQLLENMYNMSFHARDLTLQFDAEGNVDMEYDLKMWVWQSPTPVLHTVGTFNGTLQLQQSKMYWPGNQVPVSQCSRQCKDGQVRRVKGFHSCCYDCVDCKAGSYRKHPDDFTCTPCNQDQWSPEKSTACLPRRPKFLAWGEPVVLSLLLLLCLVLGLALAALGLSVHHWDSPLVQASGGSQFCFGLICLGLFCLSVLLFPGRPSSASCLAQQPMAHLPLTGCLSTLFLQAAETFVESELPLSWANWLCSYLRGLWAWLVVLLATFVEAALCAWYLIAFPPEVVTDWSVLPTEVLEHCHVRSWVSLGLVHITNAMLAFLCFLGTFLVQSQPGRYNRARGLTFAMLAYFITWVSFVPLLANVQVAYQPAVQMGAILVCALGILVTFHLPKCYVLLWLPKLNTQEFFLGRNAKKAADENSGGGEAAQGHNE

CC1=CC(=O)[N-]S(=O)(=O)O1.[K+] [Acesulfame K]
intercellular calcium concentration (Fura-2 fluorescence) after addition [1]: rise in intercellular calcium concentration

[Cl-].[Na+] [NaCl]
dependence of intercellular sodium concentration on added concentration ([2]; 50 mM then 150 mM added): affected by the concentration of added NaCl
intercellular sodium concentration (CoroNa-Red fluorescence) after addition ([2]; final concentration 50 mM, 0.5 minutes after addition): rise in intercellular sodium concentration

C[C@]12CCC(=O)C=C1CC[C@@H]1[C@@H]2[C@@H](O)C[C@]2(C=O)[C@@H](C(=O)CO)CC[C@@H]12 [aldosterone]
amount of expression of the salt taste channel αENaC (mRNA, RT-PCR) (salt taste channel αENaC): greater

C[C@]12CCC(=O)C=C1CC[C@@H]1[C@@H]2[C@@H](O)C[C@@]2(C)[C@H]1CC[C@]2(O)C(=O)CO [hydrocortisone]
amount of expression of the salt taste channel αENaC (mRNA, RT-PCR) (salt taste channel αENaC): greater
